“Also recorded” adds a separate entry of the source.
Key:
p16 = assay: Nuclear p16 immunohistochemistry of human skin biopsies after topical treatment; format: in vivo; details: formulation of 1 micromolar rapamycin, 0.5 cc daily, 240 days, vs vehicle control; FIG. 1
Description: Human skin was treated with a formulation of 1 micromolar rapamycin or an identical formulation containing a vehicle control for 240 days. 0.5 cc of the formulation was applied daily. Skin biopsies (N=8) were processed for immunohistochemistry and nuclear p16 was quantified using the Leica Aperio software system.

human skin [1] = assay: Histology (Hematoxylin Eosin stain) of dorsal hand skin biopsies after topical cream; format: in vivo; details: topical cream 10 μM vs placebo
Description: (§1) Patients were provided with a proprietary topical formulation of rapamycin (0.001%; equivalent to 10 μM) or a placebo formulation that is identical with the exception that rapamycin was not included. For seborrheic keratosis, patients were instructed to apply the formulation to a localized area of the skin up to 1 cm around the lesion, in the evening before bed. Patients were instructed to apply the cream to the dorsal side of the hand once a day, in the evening before bed.
(§2) The cream included the following ingredients: Polyoxyethylene (40) stearate, Polyoxyethylene (20) sorbitan monooleate, glycerol monostearate, paraffin, cetyl alcohol, mineral oil, water, propylene glycol, sorbitol, glycerol, methylparaben.
(§3) Patients were provided with a 4 week supply of creams labeled by a number with no indication of whether they contained rapamycin. Patients were instructed to contact the study personnel if any irritation or negative reaction occurred at any time.
Hematoxylin Eosin stain of human skin biopsies from the dorsal hand of a patient following the application of a topical cream either containing rapamycin (10 μM) or placebo are shown in FIG. 2. Histologic evidence of actinic (solar) elastoses is indicated with an arrow.
40× magnified images of human skin biopsies from the dorsal hand of a patient following the application of a topical cream either containing rapamycin (10 μM) or placebo are shown in FIG. 3.
40× magnified images of human skin biopsies from the dorsal hand of a patient following the application of a topical cream either containing rapamycin (10 μM) or placebo are shown in FIG. 4.

cytokeratin 5/6 = assay: Cytokeratin 5/6 staining of dorsal hand skin biopsies after topical cream; format: in vivo, human; details: topical cream 10 μM vs placebo, dorsal hand biopsy; FIG. 5 and FIG. 6 (40×)
Description: as §1, §2
Human skin biopsies from the dorsal hand of a patient following the application of a topical cream either containing rapamycin (10 μM) or placebo were stained with antibodies recognizing cytokeratin 5/6 (brown staining), which is a marker for basal cells in the epidermis.

human skin [2] = assay: Clinical appearance of the hand after rapamycin cream versus placebo-treated hand; format: in vivo; details: 10 μM (0.001%) cream, 6 months, person, placebo on left hand; FIG. 7
Description: as §1, §2, §3
Placebo treated left hand is provided for comparison.

purpura = assay: Recurrent purpura in a patient under topical treatment; format: in vivo, human; details: 0.001%, 4.5 months, one person with recurrent purpura; FIG. 8
Description: as §1
A person was treated with rapamycin (0.001%) for 4.5 months. The patient was a cancer survivor, multiple round of chemotherapy, recurrent purpura with subsequent scarring. […] Treatment was discontinued at end of trial.

human cells = assay: Protection of cultured cells from UV-induced cell death; format: cell-based
Description: Cells grown in the presence or absence of 1 nM rapamycin were exposed to increasing amounts of UV radiation and cell numbers were determined following 24 hours. […] In FIG. 9B, a representative photograph of the control culture 24 hours following UV is presented. Note the typical hallmarks of apoptosis including rounded floating cells and typical cell blebbing.

[3] = dorsal hand biopsy, 40× images, FIG. 4

CO[C@H]1C[C@@H]2CC[C@@H](C)[C@@](O)(O2)C(=O)C(=O)N2CCCC[C@H]2C(=O)O[C@H]([C@H](C)C[C@@H]2CC[C@@H](O)[C@H](OC)C2)CC(=O)[C@H](C)/C=C(\C)[C@@H](O)[C@@H](OC)C(=O)[C@H](C)C[C@H](C)/C=C/C=C/C=C/1C [rapamycin]
p16 levels in human skin (nuclear p16, immunohistochemistry) (p16): reduced the p16 levels in human skin
histological markers of aged/damaged skin (actinic (solar) elastoses) (human skin [1]; dorsal hand biopsies, multiple patients, FIG. 2): a reduction in the presence of these histological markers of aged/damaged skin
arrangement of the epithelial layer (human skin [1]; dorsal hand biopsy, 40× images, FIG. 3): more orderly arrangement of the epithelial layer
arrangement of collagen fibers (human skin [1]; [3]): more orderly arrangement of collagen fibers
solar elastoses (human skin [1]; [3]): fewer solar elastoses
location of cytokeratin 5/6 (CK 5/6) staining in the epidermis (cytokeratin 5/6): more focally located in the basal layer of the skin; also recorded: remained restricted to the basal layer
clinical improvement of the hand (human skin [2]): clinical improvement
purpura (purpura): significant reduction in purpura
cell death following UV irradiation (percent cell loss) (human cells; 1 nM rapamycin, increasing amounts of UV radiation, cell numbers after 24 hours, P=0.0044, FIG. 9A): reduction in cell death
apoptotic cells in culture after UV (human cells; culture grown in 1 nM rapamycin, 24 hours following UV, FIG. 9C): notable lack of apoptotic cells

Source: patent US20210379026A1, “METHODS FOR TREATING OR PREVENTING SKIN CONDITIONS” (Drexel University, priority 2018, published 2021)
